US20210207188A1, “BETA-LACTAM COMPOUNDS AND METHODS OF USE THEREOF” (priority 2018, published 2021)

Experiments:
[1] = target: T1, IMP-1 (Serratia marcescens, UniProt P52699); type: biochemical
T1 construct: His tag; made in house; host or cells: Escherichia coli
Experimental: (§1) Recombinant his-tagged beta-lactamases, including NDM-1, IMP-1, KPC-2, VIM-2 and OXA-48 were overexpressed in Escherichia coli. The enzymes were purified using HisTrap Ni-NTA columns. AmpC and TEM were purchased from commercial sources.
(§2) The fluorescence-based activity assays were performed in phosphate-buffer saline. The concentration of some of the compounds were determined by boiling the compounds in PBS solution until fluorescence signal was saturated. The amount of released fluorophore was quantified via fluorescence spectroscopy by comparing to a corresponding calibration curve.

[2] = target: T2, KPC-2 (Klebsiella pneumoniae, UniProt Q9F663); type: biochemical
T2 construct: His tag; made in house; host or cells: Escherichia coli
T2 sequence (Q9F663 25-293 limits assumed): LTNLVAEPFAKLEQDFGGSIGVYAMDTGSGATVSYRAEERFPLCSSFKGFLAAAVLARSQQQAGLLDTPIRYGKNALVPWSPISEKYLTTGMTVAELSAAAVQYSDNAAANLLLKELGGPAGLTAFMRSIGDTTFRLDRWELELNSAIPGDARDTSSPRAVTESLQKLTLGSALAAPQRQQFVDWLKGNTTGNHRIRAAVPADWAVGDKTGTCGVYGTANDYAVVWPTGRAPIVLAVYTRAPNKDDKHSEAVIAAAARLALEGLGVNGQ
Experimental: as §1, §2

[3] = target: T3, NDM-1 (Klebsiella pneumoniae, UniProt C7C422); type: biochemical
T3 construct: His tag; made in house; host or cells: Escherichia coli
T3 sequence (C7C422 29-270 limits assumed): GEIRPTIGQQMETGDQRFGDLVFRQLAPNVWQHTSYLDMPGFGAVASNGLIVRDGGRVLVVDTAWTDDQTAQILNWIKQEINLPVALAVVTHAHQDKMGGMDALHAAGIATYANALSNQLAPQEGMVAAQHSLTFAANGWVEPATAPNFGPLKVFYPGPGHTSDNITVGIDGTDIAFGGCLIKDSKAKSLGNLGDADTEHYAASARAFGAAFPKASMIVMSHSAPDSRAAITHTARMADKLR
Experimental: as §1, §2

[4] = target: T4, OXA-48 (Klebsiella pneumoniae, UniProt Q6XEC0); type: biochemical
T4 construct: His tag; made in house; host or cells: Escherichia coli
T4 sequence (Q6XEC0 23-265 limits assumed): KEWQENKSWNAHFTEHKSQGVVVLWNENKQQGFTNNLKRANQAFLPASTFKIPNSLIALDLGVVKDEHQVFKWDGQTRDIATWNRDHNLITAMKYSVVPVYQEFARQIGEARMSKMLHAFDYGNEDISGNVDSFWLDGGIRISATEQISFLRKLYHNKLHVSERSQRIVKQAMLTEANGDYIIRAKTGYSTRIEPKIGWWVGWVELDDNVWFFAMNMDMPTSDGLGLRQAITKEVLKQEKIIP
Experimental: as §1, §2

[5] = target: T5, VIM-2 (Escherichia coli, UniProt Q5U7L7); type: biochemical
T5 construct: His tag; made in house; host or cells: Escherichia coli
Experimental: as §1, §2

[6] = tested on: AmpC; assay: Activity of beta-lactamases towards probes (fluorescence-based activity assay), AmpC; type: biochemical; conditions: probe 2.0 μM (MCW-002 1.1 μM, MCW-011 0.5 μM), PBS
Experimental: as §1, §2

[7] = target: T6, TEM (Escherichia coli, UniProt P62593); assay: Activity of beta-lactamases towards probes (fluorescence-based activity assay), TEM; type: biochemical; conditions: probe 2.0 μM (MCW-002 1.1 μM, MCW-011 0.5 μM), PBS
T6 construct: purchased
T6 sequence (P62593 24-286 limits assumed): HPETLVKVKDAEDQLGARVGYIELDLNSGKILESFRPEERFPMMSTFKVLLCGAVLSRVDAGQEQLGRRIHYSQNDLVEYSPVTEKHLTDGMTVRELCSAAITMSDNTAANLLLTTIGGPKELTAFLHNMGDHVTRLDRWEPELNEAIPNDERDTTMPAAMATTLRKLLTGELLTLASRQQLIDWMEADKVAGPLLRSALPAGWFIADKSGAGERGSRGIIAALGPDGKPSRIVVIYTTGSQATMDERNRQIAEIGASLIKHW
Experimental: as §1, §2

[8] = tested on: beta-lactamases, including NDM-1, IMP-1, VIM-2, KPC-2, OXA-48, AmpC, and TEM; assay: Fluorescence-based activity assay, whole panel of tested beta-lactamases; type: biochemical; conditions: conclusion from fluorescence signals
Experimental: as §1, §2
Among the tested beta-lactamases, NDM-1, IMP-1, VIM-2, KPC-2 and OXA-48 are carbapenemases, whereas AmpC and TEM are not. Nitrocefin was used as a control to test the activity of the beta-lactamases because it can be hydrolyzed by a wide range of beta-lactamases.

[9] = tested on: clinical isolates (CPE, Carbapenemase Producing Enterobacteriaceae, and Non CPE strains); assay: Selectivity of probes with clinical isolates in lysis buffer (visible light and UV light); type: cell-based; conditions: probe 10 μM
Experimental: The selectivity of some probes were evaluated with clinical isolates. The carbapenemases presence in the bacteria (CPE, i.e., Carbapenemase Producing Enterobacteriaceae) were verified by PCR (Polymerase Chain Reaction). 1 μL loop-full of each test bacterium from overnight-cultured LB agar plate were added to 100 μL PBS buffer with 0.5% CHAPS. The bacteria were vortexed to give a homogenious suspension and incubated for 15 min. To each of the bacteria-lysis buffer mixture (20 μL) were added quick test reagents (Probes (Final concentration=10 μM), CarbaNP solution A and CarbaNP solution B). CarbaNP solutions A and B were freshly prepared according to CLSI protocol, where solution A contains 10 mM zinc sulphate and phenol red buffer at pH=7.8±0.1 and solution B was a mixture of solution A with 3 mg/mL imipenem.

[10] = Michaelis-Menten kinetics, IMP-1
[11] = probe 2.0 μM (MCW-002 1.1 μM, MCW-011 0.5 μM), PBS
[12] = probe 2.0 μM (MCW-011 0.5 μM), PBS

T1 sequence (P52699 19-246 limits assumed): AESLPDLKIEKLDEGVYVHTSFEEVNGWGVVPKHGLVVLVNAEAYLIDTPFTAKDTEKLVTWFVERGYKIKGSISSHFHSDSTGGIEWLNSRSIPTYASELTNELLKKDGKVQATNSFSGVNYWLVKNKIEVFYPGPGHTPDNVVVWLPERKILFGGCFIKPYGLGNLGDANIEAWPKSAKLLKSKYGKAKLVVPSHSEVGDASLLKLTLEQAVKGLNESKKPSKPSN

COc1cc(COc2ccc3nc4ccc(=O)cc-4oc3c2)ccc1OC/C=C/C1=C(C(=O)O)N2C(=O)[C@H]([C@@H](C)O)[C@H]2C1 [MCW-001, (5R,6S)-6-((R)-1-hydroxyethyl)-3-((E)-3-(2-methoxy-4-(((3-oxo-3H-phenoxazin-7-yl)oxy)methyl)phenoxy)prop-1-en-1-yl)-7-oxo-1-azabicyclo[3.2.0]hept-2-ene-2-carboxylic acid]
3S/k (detection limit of the probe towards the carbapenemase) ([1]; IMP-1): 0.333 pM | time until hydrolysis reaction complete (fluorescent signal plateaued) ([1]; IMP-1, probe 2.0 μM): ≤ 2 min | fluorescence signal over time ([1]; IMP-1, probe 2.0 μM (MCW-002 1.1 μM, MCW-011 0.5 μM), PBS): pronounced increase in the fluorescent signal | fluorescence turn-on signal upon beta-lactam hydrolysis ([1]; MCW-001 1 μM, IMP-1 0.5 μM): more than 60 fold | absorption change over time ([1]; MCW-001 10 μM, IMP-1 2 μM): decreased in absorbance maximum at 480 nm and increase in absorbance maximum at 571 nm | Kcat [1, 10]: 33.9 ± 0.71 s⁻¹ | Km [1, 10]: 1.2 ± 0.08 µM | 3S/k (detection limit of the probe towards the carbapenemase) [2]: 4.43 pM | relative rate of hydrolysis reaction [2]: slower compared to the reactions with NDM-1 and IMP-1 | Kcat ([2]; Michaelis-Menten kinetics): 2.17 ± 0.07 s⁻¹ | Km ([2]; Michaelis-Menten kinetics): 0.93 ± 0.11 µM | time until hydrolysis reaction complete (fluorescent signal plateaued) ([2]; probe 2.0 μM): about 25 min | fluorescence signal over time [2, 11]: pronounced increase in the fluorescent signal | 3S/k (detection limit of the probe towards the carbapenemase) [3]: 0.327 pM | Kcat ([3]; Michaelis-Menten kinetics): 29.8 ± 0.81 s⁻¹ | Km ([3]; Michaelis-Menten kinetics): 1.66 ± 0.13 µM | time until hydrolysis reaction complete (fluorescent signal plateaued) ([3]; probe 2.0 μM): ≤ 2 min | fluorescence signal over time [3, 11]: pronounced increase in the fluorescent signal | 3S/k (detection limit of the probe towards the carbapenemase) [4]: 30.3 pM | Kcat ([4]; Michaelis-Menten kinetics): 2.83 ± 0.18 s⁻¹ | Km ([4]; Michaelis-Menten kinetics): 0.66 ± 0.08 µM | time until hydrolysis reaction complete (fluorescent signal plateaued) ([4]; probe 2.0 μM): > 30 min | fluorescence signal over time [4, 12]: pronounced increase in the fluorescent signal | 3S/k (detection limit of the probe towards the carbapenemase) [5]: 3.28 pM | relative rate of hydrolysis reaction [5]: slower compared to the reactions with NDM-1 and IMP-1 | Kcat ([5]; Michaelis-Menten kinetics): 1.96 ± 0.05 s⁻¹ | Km ([5]; Michaelis-Menten kinetics): 1.18 ± 0.1 µM | time until hydrolysis reaction complete (fluorescent signal plateaued) ([5]; probe 2.0 μM): about 25 min | fluorescence signal over time [5, 12]: pronounced increase in the fluorescent signal | fluorescence signal over time [6]: minimal changes in the fluorescent signal | fluorescence signal over time [7]: minimal changes in the fluorescent signal | specificity among the tested beta-lactamases [8]: specific for carbapenemases | signal with panel of clinical isolates ([9]; incubated for 15 min): observable colorimetric and fluorescence signal in CPE strains but not the Non CPE strains | signal with panel of clinical isolates ([9]; incubated for 120 min): observable colorimetric and fluorescence signal in CPE strains but not the Non CPE strains
